{"source": "patent US9783586B2", "about": "“Inhibitors of the linear ubiquitin chain assembly complex (LUBAC) and related methods” (The United States of America, as represented by the …, priority 2013, dated 2017)", "target": "T1, RBCK1/RNF31 interaction (Homo sapiens, UniProt Q9BYM8)", "T1 construct": "expressed in transfected cells; host or cells: HEK-293", "T1 sequence (Q9BYM8 1-510)": "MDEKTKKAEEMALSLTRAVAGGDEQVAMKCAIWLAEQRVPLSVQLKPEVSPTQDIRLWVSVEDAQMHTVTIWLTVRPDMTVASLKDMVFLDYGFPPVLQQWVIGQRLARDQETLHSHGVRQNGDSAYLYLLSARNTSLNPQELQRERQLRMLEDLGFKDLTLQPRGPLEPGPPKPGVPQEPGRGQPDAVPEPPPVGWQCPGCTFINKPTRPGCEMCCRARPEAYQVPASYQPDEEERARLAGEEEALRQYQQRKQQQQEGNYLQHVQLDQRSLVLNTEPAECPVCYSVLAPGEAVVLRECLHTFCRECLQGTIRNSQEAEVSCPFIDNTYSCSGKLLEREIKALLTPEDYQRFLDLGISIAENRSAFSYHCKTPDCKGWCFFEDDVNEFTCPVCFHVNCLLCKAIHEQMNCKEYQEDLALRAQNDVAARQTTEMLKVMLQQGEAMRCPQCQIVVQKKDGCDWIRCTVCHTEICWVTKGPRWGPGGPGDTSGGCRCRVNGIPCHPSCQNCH", "experiment": "RBCK1/RNF31 co-immunoprecipitation (LUBAC complex formation) in co-transfected HEK-293 cells", "type": "cell-based", "settings": "Example 9, tested as described in Example 7 (present tense)", "note": "Positions of bridges follow the written chain, without caps; N, C: chain ends. Non-standard residues stand in square brackets, D forms with d. Residues, ends and D or L forms follow the SMILES beside them. S5 = C=CCCC[C@](C)(N)C(=O)O; βAla = NCCC(=O)O"}
{"compound": "CC(=O)NCCC(=O)N[C@@H](CO)C(=O)N[C@@H](CCCNC(=N)N)C(=O)N[C@@]1(C)CCCC=CCCC[C@@](C)(C(=O)N[C@@H](CCC(N)=O)C(=O)N[C@@H](CCCNC(=N)N)C(=O)N[C@@H](CCC(N)=O)C(=O)N[C@@H](CCCNC(=N)N)C(=O)N[C@@H](CC(C)C)C(=O)N[C@@H](CCC(=O)O)C(=O)NCC(=O)N[C@@H](Cc2ccccc2)C(=O)N[C@@H](CCCNC(=N)N)C(=O)N[C@@H](CCC(N)=O)C(=O)N[C@@H](CCCNC(=N)N)C(=O)N[C@@]2(C)CCCC=CCCC[C@@](C)(C(N)=O)NC(=O)[C@H](CO)NC(=O)[C@H](CC(=O)O)NC(=O)[C@H](Cc3c[nH]c4ccccc34)NC2=O)NC(=O)[C@H](CCC(=O)O)NC(=O)[C@H]([C@@H](C)O)NC(=O)[C@H](CC(C)C)NC1=O", "note": "[RNF31-NC P2G, Ac-βAla Ser Arg Xaa Leu Thr Glu Xaa Gln Arg Gln Arg Leu Glu Gly Phe Arg Gln Arg Xaa Trp Asp Ser Xaa-NH2] (Ac-[βAla]SR[S5]LTE[S5]QRQRLEGFRQR[S5]WDS[S5]-NH2; staple 4-8, 20-24)", "values": [{"measurement": "Interference with LUBAC function", "result": "interfere with LUBAC function"}]}
{"compound": "CC(=O)NCCC(=O)N[C@@H](CO)C(=O)N[C@@H](CCCNC(=N)N)C(=O)N[C@@]1(C)CCCC=CCCC[C@@](C)(C(=O)N[C@@H](CCC(N)=O)C(=O)N[C@@H](CCCNC(=N)N)C(=O)N[C@@H](CCC(N)=O)C(=O)N[C@@H](CCCNC(=N)N)C(=O)N[C@@H](CC(C)C)C(=O)N[C@@H](CCC(=O)O)C(=O)N2CCC[C@H]2C(=O)N[C@@H](Cc2ccccc2)C(=O)N[C@@H](CS)C(=O)N[C@@H](CCC(N)=O)C(=O)N[C@@H](CCCNC(=N)N)C(=O)N[C@@]2(C)CCCC=CCCC[C@@](C)(C(N)=O)NC(=O)[C@H](CO)NC(=O)[C@H](CC(=O)O)NC(=O)[C@H](Cc3c[nH]c4ccccc34)NC2=O)NC(=O)[C@H](CCC(=O)O)NC(=O)[C@H]([C@@H](C)O)NC(=O)[C@H](CC(C)C)NC1=O", "note": "[RNF31-NC R2C, Ac-βAla Ser Arg Xaa Leu Thr Glu Xaa Gln Arg Gln Arg Leu Glu Pro Phe Cys Gln Arg Xaa Trp Asp Ser Xaa-NH2] (Ac-[βAla]SR[S5]LTE[S5]QRQRLEPFCQR[S5]WDS[S5]-NH2; staple 4-8, 20-24)", "values": [{"measurement": "Interference with LUBAC function", "result": "interfere with LUBAC function"}]}
{"compound": "CC(=O)NCCC(=O)N[C@@H](CO)C(=O)N[C@@H](CCCNC(=N)N)C(=O)N[C@@]1(C)CCCC=CCCC[C@@](C)(C(=O)N[C@@H](CCC(N)=O)C(=O)N[C@@H](CCCNC(=N)N)C(=O)N[C@@H](CCC(N)=O)C(=O)N[C@@H](CCCNC(=N)N)C(=O)N[C@@H](CC(C)C)C(=O)N[C@@H](CCC(=O)O)C(=O)N2CCC[C@H]2C(=O)N[C@@H](Cc2ccccc2)C(=O)N[C@@H](CS)C(=O)N[C@@H](CC(C)C)C(=O)N[C@@H](CCCNC(=N)N)C(=O)N[C@@]2(C)CCCC=CCCC[C@@](C)(C(N)=O)NC(=O)[C@H](CO)NC(=O)[C@H](CC(=O)O)NC(=O)[C@H](Cc3c[nH]c4ccccc34)NC2=O)NC(=O)[C@H](CCC(=O)O)NC(=O)[C@H]([C@@H](C)O)NC(=O)[C@H](CC(C)C)NC1=O", "note": "[RNF31-NC R2CL, Ac-βAla Ser Arg Xaa Leu Thr Glu Xaa Gln Arg Gln Arg Leu Glu Pro Phe Cys Leu Arg Xaa Trp Asp Ser Xaa-NH2] (Ac-[βAla]SR[S5]LTE[S5]QRQRLEPFCLR[S5]WDS[S5]-NH2; staple 4-8, 20-24)", "values": [{"measurement": "Interference with LUBAC function", "result": "interfere with LUBAC function"}]}
